Assays:
[1] = target: T1, c-Myc-Max heterodimer binding to E-Box DNA (Homo sapiens, UniProt P01106); assay: Electrophoretic mobility shift assay (EMSA) of c-Myc-Max DNA binding; assay type: biochemical; settings: c-Myc-Max dimer 1 μM, 10 nM E-Box DNA
T1 construct: 6xHis with TEV site (N, cleaved yes); made in house; host or cells: c-Myc: E. coli BL21DE3(pLysS); Max: E. coli M15(pRep4)
Method: FIG. 17. Inhibition of c-Myc-Max DNA binding measured by electrophoretic mobility shift assay (EMSA). a. Inhibition by bivalent compounds 11, 12, 13. b. Inhibition by bivalent compounds 16, 17, 18. c. Inhibition by monovalent compounds 10074-G5 (1) and 10058-F4 (2). Inhibitor concentrations are micromolar. The c-Myc-Max dimer concentration was 1 μM in a and b, 50 nM in c.
Reactions containing c-Myc353-437 and varying concentrations of each tested inhibitor in a buffer containing 1×PBS, 1 mM EDTA; 0.1% NP40; 5% Glycerol; 1 mM DTT; 0.4 mg/mL BSA were incubated for 30 minutes, followed by addition of pre-mixed p21 Max and a synthetic double-stranded oligonucleotide containing a consensus c-Myc-binding “E-Box” element (CACGTG). The final protein concentration was 1 μM for both c-Myc353-437 and p21 Max, 10 nM E-Box DNA. The binding reaction was then allowed to proceed for an additional 15 minutes before loading on an 8% running gel (80:1 poly acrylamide:bis-acrylamide). Control experiments with the monovalent parent inhibitors 1 and 2 were similarly performed using a lower (50 nM) concentration of each protein component. Gels were run at 20° C. in 0.5×TBE and scanned on a BioRad FX molecular imager. Data were analyzed with BioRad Quantity One software.
We evaluated the efficacy of the linked compounds 11, 12, 13, 16, 17, 18 in inhibiting the c-Myc-Max interaction by measuring the binding of a target DNA sequence (E-Box) by the protein heterodimers in an electrophoretic mobility shift assay (EMSA). […] Of these, the best was compound 16 (LINK N1), with an IC50 in the 0.5-1.0 μM in both of the above cell lines. In contrast, higher concentrations of the compounds were required to inhibit the growth of the non-transformed rat fibroblast line TGR1 or of TGR1-derived c-Myc null rat fibroblasts reconstituted with either of the c-Myc target genes HMGA1b or MT-MC1, which restore a normal growth rate. […] The lower, albeit promising, potency of the bivalent inhibitors in cell based assays compared to ones involving purified components, and the partial lack of correlation between the first and the latter, may reflect a generally poor cell permeability of these compounds, which are relatively bulky and display higher than optimal polar surface areas. The effects of the linker chain connectivity on the compounds conformation and shape may also affect their cell permeability in a different manner from what observed for their c-Myc binding affinity, resulting in the aforementioned incomplete correlation between their performance in cell based and purified components assays (FIG. 19). […]

c-Myc 400-439 = target: T2, c-Myc 400-439 (Homo sapiens, UniProt P01106); assay: Fluorescence polarization titration, truncated c-Myc segment; settings: Table 2; segment with binding site of 2; read-out: Binding affinity to c-Myc 400-439
T2 construct: its truncated version c-Myc390-439 were produced from the c-Myc/pET SKB3 construct; 6xHis with TEV site (N, cleaved yes); made in house; host or cells: E. coli BL21DE3(pLysS)

c-Myc 363-381 = target: T3, c-Myc 363-381 (Homo sapiens, UniProt P01106); assay: Fluorescence polarization titration, truncated c-Myc peptide 363-381; settings: Table 2; segment with binding site of 1; read-out: Binding affinity to c-Myc 363-381
T3 construct: The synthetic peptide c-Myc363-381 is described in Follis; host or cells: synthetic peptide
From the text: A c-Myc353-437 full-length bHLH-ZIP domain and its truncated version c-Myc390-439 were produced from the c-Myc/pET SKB3 construct, kindly supplied by Dr. S. K. Nair (University of Illinois, Urbana-Champaign), by insertion into the pET151D vector, encoding an N-terminal hexahistidine (6× His), separated by a TEV protease digestion site, with the TOPO® ligation system, and over-expressed in E. coli BL21DE3(pLysS). The 6× His tagged human Max isoform p21, with low homodimerization affinity^70, cloned into the pQE10 vector (Qiagen, Inc.), was over-expressed in E. coli M15(pRep4). Bacterial cultures were grown at 37° C. in LB medium to OD600≈0.8, then induced with 0.5 mM IPTG for 5 hours. Proteins were purified by Ni-agarose chromatography with a pH gradient elution. The 6× His tag of c-MYC353-437 and c-Myc390-439 was cleaved using TEV protease (the TEV protease was expressed in a pET24 vector [courtesy of S. K. Nair] and purified by Ni-agarose chromatography under native conditions). All the proteins were further purified by HPLC and lyophilized. Protein concentrations were determined by measurement of OD280. […]
Samples were analyzed in a Photon Technology International QuantaMaster fluorimeter (Birmingham, N.J.) equipped with polymer sheet polarizers. […] Excitation and emission wavelengths were independently determined for each inhibitor. […]

T1 sequence (P01106 368-452, one chain of several): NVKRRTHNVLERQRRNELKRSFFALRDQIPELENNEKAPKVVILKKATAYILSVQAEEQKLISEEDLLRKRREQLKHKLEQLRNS
T2 sequence (P01106 405-454): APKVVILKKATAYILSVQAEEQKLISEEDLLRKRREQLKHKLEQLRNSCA

| Structure (SMILES) | Disruption of c-Myc-Max DNA (E-Box) binding [1] | Kd (c-Myc 400-439) [nM] | Kd (c-Myc 363-381) [nM] |
| --- | --- | --- | --- |
| O=C1NC(=S)S/C1=C\c1ccc(C(=O)NCCCCCNC(=O)c2cccc(Nc3ccc([N+](=O)[O-])c4nonc34)c2)cc1 [compound 12, N-[5-({3-[(7-nitro-2,1,3-benzoxadiazol-4-yl)amino]phenyl}formamido)pentyl]-4-{[(5Z)-4-oxo-2-sulfanylidene-1,3-thiazolidin-5-ylidene]methyl}benzamide] | Strong disruption of DNA binding | – | – |
| O=C1NC(=S)SC1=Cc1ccc(C(=O)NCCCCCNC(=O)c2ccc(Nc3ccc([N+](=O)[O-])c4nonc34)cc2)cc1 [compound 13] | Strong disruption of DNA binding | 53 ± 16 | 0.8 ± 0.6 |
| CCc1ccc(/C=C2\SC(=O)N(CCCCCCNC(=O)c3ccccc3Nc3ccc([N+](=O)[O-])c4nonc34)C2=O)cc1 [compound 16, N-{6-[(5Z)-5-[(4-ethylphenyl)methylidene]-2,4-dioxo-1,3-thiazolidin-3-yl]hexyl}-2-[(7-nitro-2,1,3-benzoxadiazol-4-yl)amino]benzamide amine] | Strong disruption of DNA binding | – | – |
| CCc1ccc(C=C2SC(=O)N(CCCCCCNC(=O)c3cccc(Nc4ccc([N+](=O)[O-])c5nonc45)c3)C2=O)cc1 [compound 17] | Strong disruption of DNA binding | – | – |
